Source: patent publication US11839212B2, “Synergistic pesticidal compositions and methods for delivery of insecticidal active ingredients” (0903608 B.C. Ltd., priority 2018, dated 2023)
Read-outs that look alike come from different tables or passages of the source. Values belong to the molecule of their own block, whether it stands above or below them.

Tests used:
Assay in all cases: Synergistic Growth Inhibition Assay (MIC and FIC index, 96-well, resazurin)
Type in all cases: cell-based
Alternaria solani = settings: for MIC: Alternaria solani
Protocol: (§1) In some embodiments, the synergistic action between the pesticidal active ingredient, and the at least one C6-C10 (or alternatively C11 or C12) saturated or unsaturated aliphatic acid components of the pesticidal compositions according to embodiments of the present disclosure was tested using a Synergistic Growth Inhibition Assay, which is derived from and related to a checkerboard assay as is known in the art for testing of combinations of antimicrobial agents. In the Synergistic Growth Inhibition Assay used in accordance with some embodiments of the present disclosure, multiple dilutions of combinations of pesticidal active ingredient and at least one C6-C10 saturated or unsaturated aliphatic acid agents are tested in individual cells for inhibitory activity against a target pest or pathogenic organism. In one such embodiment, the combinations of pesticidal active ingredient and C6-C10 (or alternatively C11 or C12) saturated or unsaturated aliphatic acid agents may preferably be tested in decreasing concentrations. In a further such embodiment, the combinations of pesticidal active ingredient and C6-C10 (or alternatively C11 or C12) saturated or unsaturated aliphatic acid agents may be tested in increasing concentrations. These multiple combinations of the pesticidal active ingredient and at least one C6-C10 (or alternatively C11 or C12) saturated or unsaturated aliphatic acid agents may be prepared in 96-well microtiter plates. In one such embodiment, the Synergistic Growth Inhibition Assay then comprises rows which each contain progressively decreasing concentrations of the pesticidal active ingredient and one or more C6-C10 (or alternatively C11 or C12) saturated or unsaturated aliphatic acid agents to test for the MIC of the agents in combination at which growth of the target pest or pathogen is inhibited. Thus, each well of the microtiter plate is a unique combination of the two agents, at which inhibitory efficacy of the combination against the target pest or pathogen can be determined.
(§2) In one embodiment according to the present disclosure, for each row of microtiter cells in the Synergistic Growth Inhibition Assay, the FIC index is calculated from the lowest concentration of the pesticidal active ingredient and one or more C6-C10 saturated or unsaturated aliphatic acid agents necessary to inhibit growth of a target pest or pathogen. The FIC of each component is derived by dividing the concentration of the agent present in that well of the microtiter plate by the minimal inhibitory concentration (MIC) needed of that agent alone to inhibit growth of the target pest or pathogen. The FIC index is then the sum of these values for both agents in that well of the microtiter plate. […] Fractional inhibitory concentration indices may then used as measure of synergy. […] When the FIC index is equal to 1, the combination is additive.
(§3) Then, serial dilutions of these initial compositions in successive wells in the row of the microtiter plate were used to assay the pesticidal composition under the same conditions to determine the concentration of the composition combining the two agents corresponding to the microtiter well in which growth inhibition of the target pest or organism ceases.
A culture of the representative fungal pathogen, namely Fusarium oxysporum, Botrytis cinerea, or Sclerotinia sclerotiorum, for example, is grown to exponential phase in potato dextrose broth (PDB).

Fusarium oxysporum = settings: Fusarium oxysporum, Compound B alone
Protocol: as §1, §2, §3
Resazurin dye (also known as Alamar blue dye) was used as an indicator to determine the presence of growth or inhibition of growth of Fusarium oxysporum in the wells of the 96 well microtiter plates used in the exemplary Synergistic Growth Inhibition Assay. In addition to the color change of the resazurin dye in the presence of growth of the Fusarium oxysporum, an optical or visual examination of the microtiter well may also be made to additionally determine the presence of growth or inhibition of growth of the Fusarium oxysporum.

Sclerotinia sclerotiorum = settings: Sclerotinia sclerotiorum, […]
Protocol: as §1, §2, §3
(§4) Similarly to as described above, Resazurin was used as an indicator of growth or inhibition of growth of Sclerotinia sclerotiorum in the exemplary Synergistic Growth Inhibition Assay. In addition to the color change of the resazurin, an optical or visual examination of the microtiter well may also be made to additionally determine the presence of growth or inhibition of growth of the Sclerotinia sclerotiorum.

Botrytis cinerea = settings: Botrytis cinerea, 48 h, 48 hours incubation
Protocol: as §1, §2, §3
as §4, with “Botrytis cinerea” for “Sclerotinia sclerotiorum”, “Botrytis cinerea.” for “Sclerotinia sclerotiorum.”

[1] = Compound B alone, 7 days incubation, read-out: MIC (B)
[2] = 48 h, Table 27, 48 hours incubation, read-out: MIC (B)
[3] = 48 h, Table 30, 48 hours incubation, read-out: MIC (B)
[4] = 48 h, Table 32, 48 hours incubation, read-out: MIC (B)
[5] = Table 60, Compound B alone, 7 days incubation, read-out: MIC (B)
[6] = Table 16, Compound B alone, incubation 7 days, read-out: MIC (B)
[7] = Table 17, Compound B alone, incubation 7 days, read-out: MIC (B)
[8] = Table 19, Compound B alone, incubation 7 days, read-out: MIC (B)
[9] = Table 24, Compound B alone, read-out: MIC (B)
[10] = 48 h, Table 28, 48 hours incubation, read-out: MIC (B)
[11] = 48 h, Table 31, 48 hours incubation, read-out: MIC (B)
[12] = Table 33, Compound B alone, 7 days incubation, read-out: MIC (B)
[13] = Table 34, Compound B alone, 7 days incubation, read-out: MIC (B)
[14] = Table 35, Compound B alone, 7 days incubation, read-out: MIC (B)
[15] = Table 41, Compound B alone, 7 days incubation, read-out: MIC (B)
[16] = Table 43, Compound B alone, read-out: MIC (B)
[17] = Table 44, Compound B alone, read-out: MIC (B)
[18] = Table 45, Compound B alone, read-out: MIC (B)
[19] = Table 51, Compound B alone, read-out: MIC (B)
[20] = Table 59, Compound B alone, read-out: MIC (B)
[21] = 24 h, Table 3, 24 hour incubation, read-out: MIC(B)
[22] = 24 h, Table 4, 24 hour incubation, read-out: MIC (B)
[23] = Table 56, Compound B alone, read-out: MIC (B)
[24] = Compound A alone, 7 days incubation, read-out: MIC (A)

SMILES: C=CCCCCCC(=O)O [7-Octenoic acid]
MIC (Alternaria solani; [1]): 156 µg/mL
MIC (Fusarium oxysporum; [2]): 312 µg/mL
MIC (Fusarium oxysporum; [3]): 312 µg/mL
MIC (Fusarium oxysporum; [4]): 156 µg/mL

SMILES: CC(C)CC(=O)O [3-Methylbutyric acid]
MIC (Alternaria solani; [1]): 312 µg/mL
MIC (Sclerotinia sclerotiorum; [1]): 625 µg/mL
MIC (Botrytis cinerea; [19]): 312 µg/mL
MIC (Botrytis cinerea; [20]): 312 µg/mL

SMILES: CCCCC(CC)C(=O)O (stereo not drawn) [2-Ethylhexanoic acid]
MIC (Alternaria solani; [1]): 156 µg/mL
MIC (Sclerotinia sclerotiorum; [1]): 156 µg/mL
MIC (Botrytis cinerea; [19]): 156 µg/mL
MIC (Botrytis cinerea; [20]): 156 µg/mL

SMILES: CCCCC=CCC(=O)O [3-Octenoic acid, 3-octenoic acid]
MIC (Alternaria solani; [5]): 156 µg/mL
MIC (Fusarium oxysporum; [21]): 147 µg/mL
MIC (Fusarium oxysporum; [22]): 147 µg/mL
MIC (Fusarium oxysporum; [3]): 156 µg/mL
MIC (Fusarium oxysporum; [11]): 156 µg/mL
MIC (Fusarium oxysporum; [4]): 156 µg/mL

SMILES: CCCCCCC(O)C(=O)O (stereo not drawn) [2-Hydroxyoctanoic acid]
MIC (Alternaria solani; [1]): 625 µg/mL
MIC (Sclerotinia sclerotiorum; [1]): 625 µg/mL
MIC (Botrytis cinerea; [19]): 625 µg/mL

SMILES: CCC(O)C(=O)O (stereo not drawn) [2-Hydroxybutyric acid]
MIC (Alternaria solani; [1]): 2500 µg/mL
MIC (B) (Alternaria solani; Compound B alone, 7 days incubation): 2500 µg/mL
MIC (Sclerotinia sclerotiorum; [1]): 5000 µg/mL
MIC (Botrytis cinerea; [19]): 5000 µg/mL
MIC (Botrytis cinerea; [23]): 2500 µg/mL
MIC (Botrytis cinerea; Table 57, Compound B alone, read-out: MIC (B)): 2500 µg/mL
MIC (Botrytis cinerea; [20]): 2500 µg/mL

SMILES: O=C(O)CCCCCCCCCO [10-Hydroxydecanoic acid]
MIC (Alternaria solani; read-out: MIC (B)): 1000 µg/mL
MIC (Sclerotinia sclerotiorum; read-out: MIC (B), Compound B alone, 7 days incubation): 500 µg/mL
MIC (Botrytis cinerea; read-out: MIC (B), Table 51, Compound B alone): 250 µg/mL
MIC (Botrytis cinerea; read-out: MIC (B), Table 59, Compound B alone): 250 µg/mL

SMILES: CCC(C)CCC(=O)O (stereo not drawn) [4-Methylhexanoic acid]
MIC (Alternaria solani; [1]): 312 µg/mL
MIC (Botrytis cinerea; [19]): 78.1 µg/mL
MIC (Botrytis cinerea; [20]): 78.1 µg/mL

SMILES: CCCCCC(O)CC(=O)O (stereo not drawn) [3-Hydroxyoctanoic acid]
MIC (Alternaria solani; [1]): 1250 µg/mL
MIC (Botrytis cinerea; [19]): 625 µg/mL
MIC (Botrytis cinerea; [23]): 625 µg/mL
MIC (Botrytis cinerea; [20]): 625 µg/mL

SMILES: CC(C)CC(C)c1sccc1NC(=O)c1cn(C)nc1C(F)(F)F (stereo not drawn) [Penthiopyrad, reference compound]
MIC (Alternaria solani; [24]): 500 µg/mL
MIC (Sclerotinia sclerotiorum; [24]): 500 µg/mL
MIC (Botrytis cinerea; Table 56, Compound A alone, read-out: MIC (A)): 250 µg/mL

SMILES: OC(Cc1ccccc1Cl)(Cn1nc[nH]c1=S)C1(Cl)CC1 (stereo not drawn) [Prothioconazole, reference compound]
MIC (Alternaria solani; [24]): 500 µg/mL
MIC (Sclerotinia sclerotiorum; [24]): 62.5 µg/mL
MIC (Botrytis cinerea; Table 57, Compound A alone, read-out: MIC (A)): 31.2 µg/mL

Continued, values first:

MIC (Alternaria solani; [5]): 156 µg/mL
MIC (Fusarium oxysporum; 48 h, Table 12, incubation 48 hours, read-out: MIC (B)): 312 µg/mL
MIC (Sclerotinia sclerotiorum; [1]): 39.1 µg/mL
MIC (Sclerotinia sclerotiorum; [6]): 19.5 µg/mL
MIC (Sclerotinia sclerotiorum; [7]): 78.1 µg/mL
MIC (Sclerotinia sclerotiorum; [8]): 78.1 µg/mL
MIC (Sclerotinia sclerotiorum; Table 20A, Compound B alone, incubation 7 days, read-out: MIC (B)): 39.1 µg/mL
MIC (Botrytis cinerea; [9]): 156 µg/mL
SMILES: CCCCCCCCC(=O)O [Nonanoic acid, nonanoic acid]

MIC (Alternaria solani; [5]): 312 µg/mL
MIC (Fusarium oxysporum; 24 h, Table 1, 24 hour incubation, read-out: MIC(B)): 312 µg/mL
MIC (Fusarium oxysporum; 24 h, Table 2, 24 hour incubation, read-out: MIC (B)): 312 µg/mL
MIC (Fusarium oxysporum; [2]): 312 µg/mL
MIC (Fusarium oxysporum; [10]): 312 µg/mL
MIC (Fusarium oxysporum; [3]): 312 µg/mL
MIC (Fusarium oxysporum; [11]): 156 µg/mL
MIC (Sclerotinia sclerotiorum; [1]): 312 µg/mL
MIC (Sclerotinia sclerotiorum; [12]): 156 µg/mL
MIC (Sclerotinia sclerotiorum; [13]): 156 µg/mL
MIC (Sclerotinia sclerotiorum; [14]): 156 µg/mL
MIC (Sclerotinia sclerotiorum; [15]): 156 µg/mL
MIC (Botrytis cinerea; [16]): 156 µg/mL
MIC (Botrytis cinerea; [17]): 156 µg/mL
MIC (Botrytis cinerea; [18]): 312 µg/mL
SMILES: CC/C=C/CC(=O)O [Trans-3-hexenoic acid, trans-3-hexenoic acid]

MIC (Alternaria solani; [5]): 39.1 µg/mL
MIC (Fusarium oxysporum; [21]): 71.7 µg/mL
MIC (Fusarium oxysporum; [22]): 71.7 µg/mL
MIC (Fusarium oxysporum; [2]): 312 µg/mL
MIC (Fusarium oxysporum; [10]): 312 µg/mL
MIC (Fusarium oxysporum; [3]): 156 µg/mL
MIC (Fusarium oxysporum; [4]): 78.1 µg/mL
MIC (Sclerotinia sclerotiorum; [1]): 78.1 µg/mL
MIC (Sclerotinia sclerotiorum; [12]): 39.1 µg/mL
MIC (Sclerotinia sclerotiorum; [14]): 39.1 µg/mL
MIC (Sclerotinia sclerotiorum; Table 36, Compound B alone, 7 days incubation, read-out: MIC (B)): 39.1 µg/mL
MIC (Sclerotinia sclerotiorum; Table 37, Compound B alone, 7 days incubation, read-out: MIC (B)): 156 µg/mL
MIC (Sclerotinia sclerotiorum; Table 38, Compound B alone, 7 days incubation, read-out: MIC (B)): 78.1 µg/mL
MIC (Sclerotinia sclerotiorum; Table 39, Compound B alone, 7 days incubation, read-out: MIC (B)): 39.1 µg/mL
MIC (Sclerotinia sclerotiorum; Table 40, Compound B alone, 7 days incubation, read-out: MIC (B)): 78.1 µg/mL
MIC (Sclerotinia sclerotiorum; [15]): 78.1 µg/mL
MIC (Botrytis cinerea; [16]): 156 µg/mL
MIC (Botrytis cinerea; [17]): 78.1 µg/mL
MIC (Botrytis cinerea; [18]): 78.1 µg/mL
MIC (Botrytis cinerea; Table 46, Compound B alone, read-out: MIC (B)): 39.1 µg/mL
MIC (Botrytis cinerea; Table 47, Compound B alone, read-out: MIC (B)): 78.1 µg/mL
MIC (Botrytis cinerea; Table 48, Compound B alone, read-out: MIC (B)): 78.1 µg/mL
MIC (Botrytis cinerea; Table 49, Compound B alone, read-out: MIC (B)): 156 µg/mL
MIC (Botrytis cinerea; Table 50, Compound B alone, read-out: MIC (B)): 39.1 µg/mL
MIC (Botrytis cinerea; Table 54, Compound B alone, read-out: MIC (B)): 78.1 µg/mL
MIC (Botrytis cinerea; [23]): 78.1 µg/mL
MIC (Botrytis cinerea; Table 58, Compound B alone, read-out: MIC (B)): 156 µg/mL
SMILES: C=CCCCCCCCC(=O)O [9-Decenoic acid, 9-decenoic acid]

MIC (Alternaria solani; [1]): 156 µg/mL
MIC (Alternaria solani; [5]): 156 µg/mL
MIC (Fusarium oxysporum; [2]): 156 µg/mL
MIC (Fusarium oxysporum; [3]): 156 µg/mL
MIC (Fusarium oxysporum; [4]): 156 µg/mL
SMILES: CCCC/C=C/CC(=O)O [Trans-3-octenoic acid]

MIC (Alternaria solani; [1]): 156 µg/mL
MIC (Alternaria solani; [5]): 156 µg/mL
MIC (Sclerotinia sclerotiorum; [6]): 39.1 µg/mL
MIC (Sclerotinia sclerotiorum; [7]): 39.1 µg/mL
MIC (Sclerotinia sclerotiorum; [8]): 39.1 µg/mL
MIC (Botrytis cinerea; [9]): 156 µg/mL
SMILES: CCCCCCC(=O)O [Heptanoic acid, heptanoic acid]

MIC (Alternaria solani; [1]): 312 µg/mL
MIC (Sclerotinia sclerotiorum; [13]): 156 µg/mL
SMILES: CC/C=C\CC(=O)O [Cis-3-hexenoic acid]
